Patent publication US7395112B2, “Method and apparatus for treating tumors using low strength electric fields” (priority 2002, dated 2008)

Tests used:
CT-26 colon carcinoma [1] = assay: LEF with chemotherapy (LEFCT-EC) in mice bearing 5 mm CT-26 tumors; type: in vivo, BALB/C mice
Experimental: Mice: BALB/C male mice were obtained from the breeding colony of Tel-Aviv University, Israel. Mice were used at 8-12 weeks of age. Animal care and experimentation were performed in accordance with the Tel-Aviv University guidelines.
Tumor: Colon carcinoma tumors were grown in mice with CT-26, a metastatic colon carcinoma cell line induced in a BALB/c mouse by chemical carcinogenesis. Cells were cultured in Dulbecco's modified Eagle's medium (DMEM) supplemented with 100 U/ml penicillin, 100 μg/ml streptomycin, 2 mM L-glutamine; 1 mM sodium pyruvate; 1% non-essential amino acid solution; 10% heat-inactivated fetal calf serum. Cultures were maintained at 37° C. in a humidified incubator with a 5% CO2 atmosphere.
Tumor cell inoculation: Mice were inoculated intracutaneously with 10^5 CT-26 cells suspended in 100 μL PBS into the low lateral side of the back. Local tumor growth was determined by measuring three mutually orthogonal tumor diameters with a caliper. The volume of tumor was calculated using the formula: Vol=D1×D2×D3×π/6, where D1, D2, D3 are three mutually orthogonal tumor diameters.
(§1) Low-strength electric field stimulation: To subject tumors to LEFs, stainless steel needles were used as electrodes. Tumors 5 mm in diameter (about 65 mm^3) were transfixed by electrode needles, with one cathode in the center of the tumor and three or four peripheral anodes. The electrodes were connected to an electric pulse generator and to an oscilloscope. Pulsed LEFs with a repetition frequency of 500 Hz and a pulse width of 180 μs were applied at 20, 40, 60 and 70 V/cm for a duration 12 min or 20 min. The electric pulses were administered 2-4 min following chemotherapeutic drug administration. Mice were anesthetized 10 min before the procedure.
(§2) Chemotherapeutic agents: Bleomycin (Sigma Israel Chemicals Ltd., Israel; Megapharm Ltd., Israel) was kept at a temperature of 2-8° C., and was dissolved in pyrogen-free PBS to a concentration enabling dosages of 50 U/kg body weight prior to use. BCNU was administered at a dosage of 35 mg/kg body weight, and 5-FU (Abic, Israel) was used at a dose of 100 mg/kg body weight.
Anesthesia: Mice were anesthetized using an anesthetic cocktail comprising a dose of imalgen at 100 mg/kg body weight and xylazine hydrochloride at 6.25 mg/kg body weight dissolved in PBS injected intraperitoneally in a volume of 0.25 ml per mouse 10 min prior to LEF treatment.
Statistical analysis: Survival times (Kaplan-Meir test), survival comparisons between groups (Mantel-Cox test), and tumor volume differences between groups were plotted using StatSoft “Statistica” statistical software.
Effect of LEF duration and strength on potentiation of bleomycin for treatment of colon carcinoma: In order to determine the optimal LEFCT-EC/bleomycin therapy for treatment of colon cancer, mice bearing CT-26 tumors were treated with LEFs of 40 V/cm for 12 min, and 20 V/cm for 12 or 20 min with or without administration of bleomycin, and survival was analyzed.

B16-F10.9 melanoma [2] = assay: LEFCT-EC in mice bearing subcutaneous B16-F10.9 melanoma; type: in vivo, C57BL/6 mice; settings: for Tumor size (mean ± standard error): 7 days after treatment
Experimental: Animals: C57BL/6 male mice were obtained from the breeding colony of Tel-Aviv University, Israel. Mice were used at 8-12 weeks of age. Animal care and experimentation was carried out in accordance with Tel-Aviv University guidelines.
Melanoma tumor cell line: The highly metastatic, poorly immunogenic B16-F10.9 (F10.9) subclone of the B16 melanoma cell line was used to generate melanoma tumors in mice (Eisenbach L. et al., 1984. Int J Cancer 34:567). Cells were maintained in DMEM supplemented with 100 U/ml penicillin, 100 μg/ml streptomycin, 4 mM glutamine, 1 mM sodium pyruvate, 1% non-essential amino acids and 10% heat-inactivated fetal calf serum (FCS); and were cultured at 37° C. in a humidified incubator in an atmosphere of 7% carbon dioxide and 93% air.
Tumor generation protocol: F10.9 tumors were induced in C57BL/6 mice by subcutaneous injection of 2×10^5 F10.9 cells. Mice were subjected to experimental treatments once tumors reached 5 mm in diameter (about 60-70 mm^3). Chemotherapeutic drugs: The following chemotherapeutic drugs used were: cis-platinum (II) diamminedichloride (cisplatin; #P-4394, Sigma, Israel), dissolved in PBS for injections; Taxol (Mead Johnson Oncology Products, A Bristol-Myers Squibb, USA), obtained as a sterile nonpyrogenic solution containing 6 mg/ml paclitaxel, 527 mg/ml of purified Cremophor EL (polyoxyethylated castor oil) and 5-FU (Abic, Israel).
Low-strength electric field enhanced cancer therapy protocol: Mice were subjected to a single treatment of LEFCT-EC, once tumors reached 5 mm in diameter (11-17 days following tumor cell inoculation). Volumes of up to 100 μl of chemotherapeutic agents were injected into tumor loci, and exposures to electric fields were carried out 3-4 min following intratumoral injection of chemotherapeutic agents. To expose tumors to electric fields, stainless steel electrode needles (Karlsbader insect pins No 0. BioQuip Products, USA) soldered at their brassy ends with thin isolated copper wires were used. Electrodes were inserted to a depth of about 7 mm percutaneously into and in the immediate vicinity of the tumor; one cathode needle in the center of the tumor and three peripheral anodes, at a distance of about 5 mm from the cathode. The needles were connected to an electric pulse generator (Grass S48 Stimulator, USA). The field strength applied was about 40 V/cm; the repetition frequency, 500 Hz; and the pulse width, 180 μs. All mice were anesthetized prior to LEF treatment.
Statistical analysis: Statistical analysis of survival times (Kaplan-Meir test), survival comparisons between groups (Mantel-Cox test) and tumor volume differences between groups (Kolmogorov-Smirnov test) were performed using StatSoft Statistica statistical software. The 10-15% mortality rate in the 5 days following LEF or LEF-chemotherapy was considered as treatment-caused, therefore such cases of mortality were excluded.
Tumor volume determination: performed as described above in Example 1 of the Examples section.

CT-26 colon carcinoma [3] = assay: CT-26 cells inoculated with splenocytes from mice cured by LEFCT-EC with BCNU; type: in vivo, BALB/C mice; settings: donors cured by LEFCT-EC with BCNU; tumor cells to splenocytes 1:100
Source text: Anti-tumor effect of splenocytes from tumor bearing mice cured by LEFCT-EC with BCNU: In order to examine whether development of resistance against challenge with CT-26 tumors in mice cured of such tumors via LEFCT-EC with BCNU is immunologically mediated, normal mice were inoculated with a dose of CT-26 tumor cells mixed with splenocytes from cured animals. […] Thus, curative LEFCT-EC+BCNU treatment of CT-26 tumor bearing mice induces immunological resistance to subsequent growth of such tumors in such mice.

CT-26 colon carcinoma [4] = tested on: CT-26 colon carcinoma
CT-26 colon carcinoma [5] = assay: LEFCT-EC with BCNU in mice bearing large (10 or 15 mm) CT-26 tumors; type: in vivo, BALB/C mice; settings: for time after which all mice were dead: BCNU 35 mg/kg only; for cure rate: LEF 40 V/cm 12 min + BCNU 35 mg/kg
Experimental: as §1, §2
Effect of LEFCT-EC with BCNU on CT-26 development in mice bearing large tumors: In order to examine the effectiveness of LEFCT-EC with BCNU on tumor development in mice with a large tumor burden, mice bearing tumors of 10 mm (about 523 mm^3) or 15 mm in diameter (about 1,760 mm^3). These animals were treated with 4 electrodes placed 7 mm apart.

B16-F10.9 melanoma [6] = assay: Rechallenge with B16-F10.9 cells of mice cured by LEFCT-EC; type: in vivo, C57BL/6 mice; settings: mice cured by LEFCT-EC with the drug, challenged with 2×10^5 B16-F10.9 cells
Source text: FIG. 17 is a data plot depicting the cumulative survival of mice previously bearing B16-F10.9 melanoma and cured by LEFCT-EC with cisplatin or taxol following challenge with B16-F10.9 melanoma cells. Mice cured by LEF-chemotherapy that survived for 120-180 days after initial tumor inoculation, were challenged with 2×10^5 B16-F10.9 cells subcutaneously.
Effect of curative LEFCT-EC treatment on generation of anti B16-F10.9 tumor resistance: The resistance of mice cured of B16-F10.9 melanoma by LEF-chemotherapy was analyzed by challenging such cured mice with a tumorigenic dose of B16-F 10.9 melanoma cells.

[7] = LEF-CT (drug + LEF), cisplatin 4 mg/kg, bleomycin 8 U/kg, 5-FU 150 mg/kg, taxol 20 mg/kg
[8] = intratumoral drug injection alone, same doses
[9] = chemotherapy alone, intratumoral, no LEF

SMILES: O=c1[nH]cc(F)c(=O)[nH]1 [5-FU, 5-fluorouracil]
- time at which half of the mice were still alive (CT-26 colon carcinoma [1]; 5-FU 100 mg/kg intratumoral or intravenous + LEF 40 V/cm 12 min): 80 days
- Tumor size (mean ± standard error) (B16-F10.9 melanoma [2]; [7]): 143 ± 52 mm^3
- Tumor size (mean ± standard error) (B16-F10.9 melanoma [2]; [8]): 460 ± 54 mm^3

SMILES: O=NN(CCCl)C(=O)NCCCl [BCNU]
- tumor growth with splenocytes from cured mice (CT-26 colon carcinoma [3]): completely prevent growth of tumors
- survival rate (CT-26 colon carcinoma [1]; BCNU 35 mg/kg intratumoral + LEF 40 V/cm 12 min, after 52 days, unchanged until day 110): 83%
- survival (CT-26 colon carcinoma [1]; BCNU + LEF 40 V/cm, comparison with surgery, after about 60 days until about 120 days): 40%
- cure rate (CT-26 colon carcinoma [1]; LEFCT-EC: drug + LEF 40 V/cm 12 min, 5 mm tumors): 83%
- tumor size with drug only relative to drug + LEF (CT-26 colon carcinoma [1]; after 21 days): about triple the size
- time after which half the mice died (CT-26 colon carcinoma [1]; drug alone, no LEF, intratumoral injection (5-FU intratumoral or intravenous), 5 mm tumors): about 48 days
- tumor volume of reinoculated mice relative to first-time inoculated mice (CT-26 colon carcinoma [4]; after 18 days): about one order of magnitude smaller
- day by which half of the cured and challenged mice were still alive (CT-26 colon carcinoma [4]; mice cured by LEFCT-EC with BCNU, challenged with 10^5 CT-26 cells): ~63 days
- tumor size with LEFCT-EC + BCNU relative to BCNU alone (CT-26 colon carcinoma [5]; 10 mm tumors): approximately an order of magnitude smaller
- time after which all mice were dead (CT-26 colon carcinoma [5]; 10 mm tumors): 90 days
- time after which all mice were dead (CT-26 colon carcinoma [5]; 15 mm tumors): 87 days
- cure rate (CT-26 colon carcinoma [5]; 10 mm tumors): over 80%
- cure rate (CT-26 colon carcinoma [5]; 15 mm tumors): 100%
- survival (CT-26 colon carcinoma [5]; LEF with BCNU, 15 mm tumors, after 100 days): 100%
- tumor detection (CT-26 colon carcinoma [5]; LEFCT-EC with BCNU, 15 mm tumors, after 42 days): no tumors were detected

SMILES: N.N.[Cl-].[Cl-].[Pt+2] [cisplatin, cis-platinum (II) diamminedichloride]
- Tumor size (mean ± standard error) (B16-F10.9 melanoma [2]; [7]): 83 ± 57 mm^3
- mean survival time (MST) (B16-F10.9 melanoma [2]; LEF-chemotherapy: intratumoral drug + LEF about 40 V/cm 12 min, 120 days (cisplatin) or 180 days (taxol, bleomycin) after inoculation): 51.1 days
- animals tumor free (B16-F10.9 melanoma [2]; LEF-chemotherapy, 120 days after tumor inoculation): 13.5%
- effect of drug alone on survival (B16-F10.9 melanoma [2]; [9]): no significant effect
- mean survival time (MST) (B16-F10.9 melanoma [2]; [9]): 29.5 days
- Tumor size (mean ± standard error) (B16-F10.9 melanoma [2]; [8]): 1684 ± 204 mm^3
- LEFCT-EC treated mice that died two months and later after treatment with pulmonary metastatic foci, free of primary tumor (B16-F10.9 melanoma [2]; pooled statement for cisplatin, taxol or bleomycin): About 10%
- MST of challenged mice (B16-F10.9 melanoma [6]): 48.7 days
